Consider four compounds from patent US10233151B2, “Use of a novel 3-aryl-4-catechol-pyrrole-N-propanol compound and the derivatives thereof to treat cancer and diseases related to excessive angiogenesis” (Centre National de la Recherche Scientifique (CNRS), priority 2014, dated 2019).

The test system of the data set is HCT-116 cells. The data set can be described thus: Cell growth test (CellTiter-Blue), HCT-116. The class given is cell-based. The conditions noted are these: for cytotoxic effect relative to compound (1): 72 hours; for IC50: Homo sapiens, HCT-116, 48 h, 48 hours, read-out: IC50, cytotoxic effect. The method, then:
The biological activity of compound (1), as well as that of its structural analogues, was studied in vitro on 7 different cancer cell lines: • HCT-116 (colorectal cancer) • U87 (glioblastoma) • K562 (myeloid leukemia) and K562 R • MDA-MB 231 (mammary adenocarcinoma) • MCF-7 (mammary adenocarcinoma) • A549 (pulmonary alveolar adenocarcinoma)
The cells selected for this study were incubated at 37° C. in the presence of compound (1) added in the culture medium at various concentrations and at various times. The set of experiments carried out made it possible to determine the degree of cytotoxicity of the compound tested (IC50), its capacity to induce cell death by apoptosis, in close dependence on extracellular superoxide anion for its activation. […]
For orientation: The colour change of resazurin is a common sign of viable cells or microbes.

SMILES strings stand for the structures. Read-outs that look alike come from different tables or passages of the source.

Regarding `CCOCCCn1cc(-c2ccccc2)c(-c2ccc(O)c(O)c2)c1` [(4), 4-(1-(3-Ethoxypropyl)-4-phenyl-1H-pyrrole-3-yl)benzene-1,2-diol], where the note is “HCT-116, normoxia”, the “cytotoxic effect relative to compound (1)” value is on record as “does not substantially change the IC50 value”. As for `O=C1C=C(c2cn(CCCO)cc2-c2ccccc2)C=C(C2=C(O)C(c3cn(CCCO)cc3-c3ccccc3)=CC(O)C2O)C1=O` (centres unmarked) [dimer MH+ 631], the IC50 (as a rule, the concentration at which inhibition is half-maximal) reads like this: (HCT-116, hypoxia (2% O2)) 10 µM; (HCT-116, normoxia) 7.5 µM. Take `OCCCn1cc(-c2ccccc2)c(-c2ccccc2)c1` [(3), 3-(3,4-Diphenyl-1H-pyrrol)propan-1-ol]: the “cytotoxic effect relative to compound (1)” value (HCT-116, normoxia) is “loss of cytotoxicity”. Regarding `OCCCn1cc(-c2ccccc2)c(-c2ccc3c(c2)OCCO3)c1` [(2), 3-(3-(2,3-dihydrobenzo[b][1,4]dioxin-6-yl)-4-phenyl-1H-pyrrole-1-yl)propan-1-ol], the “cytotoxic effect relative to compound (1)” value (HCT-116, normoxia) is on record as “loss of cytotoxicity”.
